Key:
human GST-CLK1 = target: T1, human GST-CLK1 (Homo sapiens, UniProt P49759); test: GST-CLK1 enzyme inhibition, ADP-Glo kinase assay; assay type: biochemical; settings: ATP 10 μM, GST-CLK1 129-end
T1 construct: purified human GST-CLK1 (129-end, SignalChem) enzyme; purchased SignalChem
Summary of the method: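 Human GST-CLK1 (129-end, 3 ng) reacted with substrate and 10 μM ATP for 1 h at 25° C in 40 mM Tris-HCl pH 7.4, 20 mM MgCl2, 0.5 mg/mL BSA, 50 μM DTT. ADP-Glo luminescence was normalised to solvent control; IC50 (nM) from 3 data sets.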

MDA-MB-468 cell line = test: Inhibition of proliferation of MDA-MB-468 cancer cells (Cell Titer-Glo); assay type: cell-based; settings: Homo sapiens, MDA-MB-468, 72 hours
Method: (§1) To evaluate an inhibitory effect on the proliferation of cancer cells, each of an MDA-MB-231 cell line (Korean Cell Line Bank #30026) and an MDA-MB-468 cell line as triple-negative breast cancer cell lines, and SHP-77 (ATCC #CRL-2195) as a small-cell lung cancer cell line was cultured in DMEM (HyClone #SH30243) or an RPMI medium (HyClone #SH3027.01) to analyze a cell growth rate. More specifically, a cell line was plated on a 96-well flat bottom plate (Corning #3903) at a density of 2,000 cells/100 μL per well, and then treated with 11 concentrations of the Example compound, a solution of which was diluted 3-fold so that a final concentration of the compound was 10.000000, 3.333333, 1.111111, 0.370370, 0.123457, 0.041152, 0.013717, 0.004572, 0.001524, 0.000508, and 0.000169 μM. After 72 hours, each of the culture media was treated with 100 μL of Cell Titer-Glo (Promega G7573), and then cultured at room temperature for 10 minutes. Then, a degree of luminescence was measured using a microplate reader. A GI50 value was calculated from the measured degree of luminescence using Prism (Version 8.2 GraphPad) software.

human GST-DYRK1A = target: T2, human GST-DYRK1A (Homo sapiens, UniProt Q13627); test: GST-DYRK1A enzyme inhibition, ADP-Glo kinase assay; assay type: biochemical; settings: ATP 10 μM, GST-DYRK1A full length, read-out: DYRK1 IC50
T2 construct: purified human GST-DYRK1A (full length, Thermo Scientifics) enzyme; purchased Thermo Scientifics
Summary of the method: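 Full-length human GST-DYRK1A (10 ng) with 10 μM ATP and specific substrate in 40 mM Tris-HCl pH 7.4, 20 mM MgCl2, 0.5 mg/mL BSA, 50 μM DTT, 1 h at 25 °C. ADP formation read by ADP-Glo luminescence relative to solvent control; IC50 from three data sets.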

LRRK2 = LRRK2 (Homo sapiens, UniProt Q5S007); test: LRRK2 enzyme inhibition, ADP-Glo kinase assay; assay type: biochemical; design: purchased Invitrogen PR8604B; settings: ATP 10 μM
Chain of LRRK2 (Q5S007 970-2527 limits assumed): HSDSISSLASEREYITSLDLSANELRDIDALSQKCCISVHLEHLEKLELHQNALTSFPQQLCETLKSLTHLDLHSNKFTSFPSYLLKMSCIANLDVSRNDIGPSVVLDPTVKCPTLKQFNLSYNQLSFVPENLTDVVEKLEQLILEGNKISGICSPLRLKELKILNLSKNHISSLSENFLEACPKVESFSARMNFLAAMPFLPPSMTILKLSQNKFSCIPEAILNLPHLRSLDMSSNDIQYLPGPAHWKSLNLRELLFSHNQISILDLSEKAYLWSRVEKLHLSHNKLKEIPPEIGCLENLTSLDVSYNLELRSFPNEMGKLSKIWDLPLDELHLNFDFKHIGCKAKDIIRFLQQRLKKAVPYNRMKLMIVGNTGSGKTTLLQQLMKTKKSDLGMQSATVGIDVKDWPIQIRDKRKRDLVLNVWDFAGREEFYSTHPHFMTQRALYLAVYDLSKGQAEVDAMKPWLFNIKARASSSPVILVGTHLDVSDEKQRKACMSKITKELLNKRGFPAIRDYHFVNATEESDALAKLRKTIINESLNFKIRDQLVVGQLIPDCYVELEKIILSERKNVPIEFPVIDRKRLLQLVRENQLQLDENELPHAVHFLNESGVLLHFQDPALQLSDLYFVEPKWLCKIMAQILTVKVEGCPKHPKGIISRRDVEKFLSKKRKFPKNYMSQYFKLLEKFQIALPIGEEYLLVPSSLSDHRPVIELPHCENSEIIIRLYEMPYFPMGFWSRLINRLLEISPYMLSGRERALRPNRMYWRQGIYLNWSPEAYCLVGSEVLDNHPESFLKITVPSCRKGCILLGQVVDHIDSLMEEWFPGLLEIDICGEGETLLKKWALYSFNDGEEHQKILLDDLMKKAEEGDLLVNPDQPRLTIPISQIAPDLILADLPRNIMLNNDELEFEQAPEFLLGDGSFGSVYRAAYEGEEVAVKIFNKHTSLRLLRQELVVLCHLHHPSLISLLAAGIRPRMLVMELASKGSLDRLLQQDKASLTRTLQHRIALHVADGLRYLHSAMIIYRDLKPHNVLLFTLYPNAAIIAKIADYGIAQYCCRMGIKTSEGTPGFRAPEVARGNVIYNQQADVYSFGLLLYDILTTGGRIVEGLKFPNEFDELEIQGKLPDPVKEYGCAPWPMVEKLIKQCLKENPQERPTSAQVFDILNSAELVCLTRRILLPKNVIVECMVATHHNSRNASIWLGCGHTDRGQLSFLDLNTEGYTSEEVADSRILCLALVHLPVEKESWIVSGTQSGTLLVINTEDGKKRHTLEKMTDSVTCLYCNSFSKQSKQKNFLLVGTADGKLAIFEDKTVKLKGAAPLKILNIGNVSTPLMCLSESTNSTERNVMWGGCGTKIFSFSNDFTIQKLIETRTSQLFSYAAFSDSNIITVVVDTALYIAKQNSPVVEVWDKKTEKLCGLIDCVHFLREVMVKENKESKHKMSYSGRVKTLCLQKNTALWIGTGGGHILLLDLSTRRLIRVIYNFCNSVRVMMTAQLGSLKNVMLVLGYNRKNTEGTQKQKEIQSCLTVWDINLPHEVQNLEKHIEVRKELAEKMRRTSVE
Summary of the method: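 Purified human LRRK2 (25 ng) with 10 μM ATP and 0.2 μg substrate in 40 mM Tris-HCl pH 7.4, 20 mM MgCl2, 0.5 mg/mL BSA, 50 μM DTT, 2 h at 25° C. ADP-Glo luminescence; 12-point compound series from 50 μM final; IC50 relative to solvent control.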

MDA-MB-231 cell line = test: Inhibition of proliferation of MDA-MB-231 cancer cells (Cell Titer-Glo); assay type: cell-based; settings: Homo sapiens, 72 hours
Method: as §1

LRRK2 (G2019S) = LRRK2 (G2019S) (Homo sapiens, UniProt Q5S007, G2019S); test: LRRK2 G2019S enzyme inhibition, ADP-Glo kinase assay; assay type: biochemical; design: purchased SignalChem L10-12GG; settings: ATP 25 μM
Chain of LRRK2 (G2019S) (Q5S007 970-2527 G2019S limits assumed): as the sequence (Q5S007 970-2527 limits assumed) above, with G1050S counted along it
Summary of the method: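 Purified human LRRK2 G2019S (16 ng) with 25 μM ATP and 0.2 μg substrate, 2 h at 25° C. in Tris-HCl pH 7.4, MgCl2, BSA, DTT buffer; compounds at 12 final concentrations, 50 μM down to 0.000001024 μM. ADP-Glo luminescence versus solvent control gave IC50.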

human DYRK1A and tau = test: Inhibition of tau phosphorylation, ClariCELL Kinase Cell-Based Assay, HEK 293 cells expressing human DYRK1A and tau; settings: for inhibition at 1 µM: HEK293, read-out: % inhibition at 1 uM, tau phosphorylation, compound 1 uM; for inhibition at 0.25 µM / inhibition at 0.5 µM: HEK293, tau phosphorylation; for inhibition at 0.25 µM: compound 0.25 uM; for inhibition at 0.5 µM: compound 0.5 uM
Method: An inhibitory effect on tau phosphorylation was determined using the ClariCELL™ Kinase Cell-Based Assay service (commercially available from CamaBio USA, Inc.). Human embryonic kidney (HEK 293) cells temporarily expressing human DYRK1A and tau were exposed to the compound, and then lysed to release cell proteins. In this case, the released tau was captured on a plate, and a degree of phosphorylation was quantified by ELISA using a tau phosphorylation-specific antibody.

T1 sequence (P49759 129-484 limits assumed): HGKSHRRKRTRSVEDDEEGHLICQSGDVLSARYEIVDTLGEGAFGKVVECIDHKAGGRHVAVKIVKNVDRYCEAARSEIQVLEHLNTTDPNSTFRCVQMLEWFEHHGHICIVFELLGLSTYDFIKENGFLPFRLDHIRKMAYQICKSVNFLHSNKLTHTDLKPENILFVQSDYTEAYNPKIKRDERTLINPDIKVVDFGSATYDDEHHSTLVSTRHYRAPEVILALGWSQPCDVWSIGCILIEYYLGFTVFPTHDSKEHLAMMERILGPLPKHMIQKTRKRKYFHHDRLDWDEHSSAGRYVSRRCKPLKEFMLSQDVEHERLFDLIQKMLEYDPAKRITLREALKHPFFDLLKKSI

| SMILES | IC50 (human GST-CLK1) [nM] | GI50 (MDA-MB-468 cell line) [nM] | IC50 (human GST-DYRK1A) [nM] | IC50 (LRRK2) [nM] | GI50 (MDA-MB-231 cell line) [nM] | IC50 (LRRK2 (G2019S)) [nM] | inhibition at 1 µM (human DYRK1A and tau) [%] | inhibition at 0.25 µM (human DYRK1A and tau) [%] | inhibition at 0.5 µM (human DYRK1A and tau) [%] |
| --- | --- | --- | --- | --- | --- | --- | --- | --- | --- |
| COc1cc(S(=O)(=O)N2CCOCC2)ccc1Nc1nc(NC(C)C)c2c(C#N)c[nH]c2n1 [Example 250, 4-(isopropylamino)-2-((2-methoxy-4-(morpholinosulfonyl)phenyl)amino)-7H-pyrrolo[2,3-d]pyrimidine-5-carbonitrile] | 301 to 1000 | < 50 | 301 to 1000 | < 100 |  |  |  |  |  |
| O=C(c1ccc(Nc2nc(NC3CCCCC3)c3cc[nH]c3n2)c2c1CCO2)N1CCC(N2CCOCC2)CC1 [Example 245, (7-((4-(cyclohexylamino)-7H-pyrrolo[2,3-d]pyrimidin-2-yl)amino)-2,3-dihydrobenzofuran-4-yl)(4-morpholinopiperidin-1-yl)methanone] | 301 to 1000 | 51 to 100 | 301 to 1000 |  |  |  |  |  |  |
| COc1cc(P(C)(C)=O)ccc1Nc1nc(NC2CCCCC2)c2c(C#N)c[nH]c2n1 [Example 117, 4-(cyclohexylamino)-2-((4-(dimethylphosphoryl)-2-methoxyphenyl)amino)-7H-pyrrolo[2,3-d]pyrimidine-5-carbonitrile] | 301 to 1000 | < 50 |  |  | < 50 |  |  |  |  |
| COc1cc(P2(=O)CCN(C3CC3)CC2)ccc1Nc1nc(NC2CCCC2)c2cc[nH]c2n1 [Example 242, 4-(4-((4-(cyclopentylamino)-7H-pyrrolo[2,3-d]pyrimidin-2-yl)amino)-3-methoxyphenyl)-1-cyclopropyl-1,4-azaphosphinane 4-oxide] | 301 to 1000 | 301 to 1000 | 301 to 1000 |  |  |  |  |  |  |
| O=C(c1ccc(Nc2nc(NC3CCCCC3)c3cc[nH]c3n2)c2c1CCO2)N1CCOCC1 [Example 244, (7-((4-(cyclohexylamino)-7H-pyrrolo[2,3-d]pyrimidin-2-yl)amino)-2,3-dihydrobenzofuran-4-yl)(morpholino)methanone] | 301 to 1000 | < 50 | 301 to 1000 | < 100 |  |  |  |  |  |

The next compounds have a lower IC50 (human GST-CLK1) than those just listed; values first:

| IC50 (human GST-CLK1) [nM] | GI50 (MDA-MB-468 cell line) [nM] | IC50 (human GST-DYRK1A) [nM] | IC50 (LRRK2) [nM] | GI50 (MDA-MB-231 cell line) [nM] | IC50 (LRRK2 (G2019S)) [nM] | SMILES | inhibition at 1 µM (human DYRK1A and tau) [%] | inhibition at 0.25 µM (human DYRK1A and tau) [%] | inhibition at 0.5 µM (human DYRK1A and tau) [%] |
| --- | --- | --- | --- | --- | --- | --- | --- | --- | --- |
| < 100 |  | < 100 | < 100 |  | < 100 | N#Cc1c[nH]c2nc(Nc3ccc(C(=O)N4CCC(N5CCOCC5)CC4)c4c3OCC4)nc(NC3CCCCC3)c12 [Example 322, 4-(cyclo-hexylamino)-2-((4-(4-morpholino-piperidine-1-carbonyl)-2,3-dihydro-benzofuran-7-yl)amino)-7H-pyrrolo[2,3-d]pyrimidine-5-carbonitirle] | 64.3 | -10.5 | 34.2 |
| < 100 |  | < 100 | < 100 |  |  | CCNc1nc(Nc2ccc(P3(=O)CCN(C4CCOCC4)CC3)cc2OC)nc2[nH]cc(C(F)(F)F)c12 [Example 439, 4-(4-((4-(ethylamino)-5-(trifluoromethyl)-7H-pyrrolo[2,3-d]pyrimidin-2-yl)amino)-3-methoxyphenyl)-1-(tetrahydro-2H-pyran-4-yl)-1,4-azaphosphinane 4-oxide] | 55.7 | 18.8 | 43.6 |
| < 100 | 301 to 1000 | < 100 |  |  |  | N#Cc1c[nH]c2nc(Nc3ccc(C(=O)N4CCC(N5CCOCC5)CC4)c4c3OCC4)nc(NC3CCCC3)c12 [Example 320, 4-(cyclo-pentylamino)-2-((4-(4-morpholino-piperidine-1-carbonyl)-2,3-dihydro-benzofuran-7-yl)amino)-7H-pyrrolo[2,3-d]pyrimidine-5-carbonitrile] |  |  |  |

— US20230066011A1, “PYRROLOPYRIMIDINE DERIVATIVE, AND PHARMACEUTICAL COMPOSITION FOR PREVENTING OR TREATING PROTEIN KINASE-RELATED DISEASE COMPRISING SAME AS ACTIVE INGREDIENT” (VORONOI CO., LTD., priority 2019, published 2023)
